One assay has as its target T1, Dgt (Escherichia coli, UniProt P15723).
T1 sequence (P15723 2-505): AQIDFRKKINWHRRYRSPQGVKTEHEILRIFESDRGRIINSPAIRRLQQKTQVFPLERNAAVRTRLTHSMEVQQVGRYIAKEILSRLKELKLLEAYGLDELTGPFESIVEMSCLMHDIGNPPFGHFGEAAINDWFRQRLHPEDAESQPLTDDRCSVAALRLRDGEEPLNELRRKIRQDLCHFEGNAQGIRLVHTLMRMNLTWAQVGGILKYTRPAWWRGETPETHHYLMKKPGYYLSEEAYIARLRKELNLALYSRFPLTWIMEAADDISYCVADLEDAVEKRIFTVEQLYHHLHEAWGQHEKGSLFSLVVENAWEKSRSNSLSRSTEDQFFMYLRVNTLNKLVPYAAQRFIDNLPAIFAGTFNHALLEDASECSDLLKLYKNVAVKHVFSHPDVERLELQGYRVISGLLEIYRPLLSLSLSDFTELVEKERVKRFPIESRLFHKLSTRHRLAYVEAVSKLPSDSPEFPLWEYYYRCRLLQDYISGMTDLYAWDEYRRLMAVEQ
Briefly: discontinuous HPLC of deoxyguanosine, Michaelis-Menten fit. In kind it is biochemical. Conditions: 20 mM Tris-HCl pH 8.0; 5 mM MgCl2; 30 °C; Dgt 0.2 nM hexamer.

Assay [1] deals with Purine Nucleoside Phosphorylase (PNPase; EC 2.4.2.1). Briefly: XOD-coupled absorbance at […] nm, initial velocities, Michaelis-Menten fit. Conditions: 100 mM Tris-HCl pH 8; 5 mM KH2PO4; PNPase 50 mU/mL; XOD 500 mU/mL as coupling enzyme. In kind it is biochemical.

A word on the Km: it is the substrate concentration at which the rate is half of its maximum. As for `Nc1nc2c(ncn2[C@H]2C[C@H](O)[C@@H](COP(=O)(O)OP(=O)(O)OP(=O)(O)O)O2)c(=O)[nH]1` [dGTP], the Km entry on Dgt is recorded as “the best fit to the data is a simple Michaelis-Menten curve”.

`Nc1nc2c(ncn2[C@H]2C[C@H](O)[C@@H](CO)O2)c(=O)[nH]1` [deoxyguanosine]: the Km in assay [1] was found to be 110 ± 13 µM.

(Values after paper PMC4744544 (Analytical biochemistry, 2015).)
